Measurements from the NIST ThermoML archive (doi:10.1021/je060271a).
Values joined by “and” are separate entries in the source; they are usually repeats but may differ in a detail not shown here. Equal entries are not always repeated.

Settings: Liquid, Vibrating tube method

CCCCCC(=O)OCC(COC(=O)CCCCC)(COC(=O)CCCCC)COC(=O)CCCCC [pentaerythritol tetrahexanoate]
Settings | mass density
283.16 K, 9726 kPa | 1009.7 kg/m3
283.16 K, 9740.5 kPa | 1009.7 kg/m3
283.16 K, 11666 kPa | 1010.8 kg/m3
283.16 K, 11699 kPa | 1010.9 kg/m3
283.16 K, 11719 kPa | 1011 kg/m3
283.16 K, 11736 kPa | 1010.9 kg/m3
283.16 K, 11882 kPa | 1011 kg/m3
283.16 K, 15896 kPa | 1013.2 kg/m3
283.16 K, 15917 kPa | 1013.2 kg/m3
283.16 K, 15934 kPa | 1013.3 kg/m3
283.16 K, 15952 kPa | 1013.2 kg/m3
283.16 K, 15973 kPa | 1013.2 kg/m3
283.16 K, 15990 kPa | 1013.1 kg/m3
283.16 K, 16007 kPa | 1013.1 kg/m3
283.16 K, 16028 kPa | 1013.2 kg/m3
283.16 K, 16047 kPa | 1013.4 kg/m3
283.16 K, 17073 kPa | 1013.9 kg/m3
283.16 K, 17091 kPa | 1013.8 kg/m3
283.16 K, 17101 kPa | 1013.8 kg/m3
283.16 K, 17102 kPa | 1013.8 kg/m3
283.16 K, 17103 kPa | 1013.9 kg/m3
283.16 K, 21750 kPa | 1016.3 kg/m3
283.16 K, 24165 kPa | 1017.6 kg/m3
283.16 K, 24256 kPa | 1017.8 kg/m3
283.16 K, 24293 kPa | 1017.8 kg/m3
283.16 K, 24310 kPa | 1017.7 kg/m3
283.16 K, 24348 kPa | 1017.7 kg/m3
283.16 K, 26923 kPa | 1019 kg/m3
283.16 K, 26937 kPa | 1019 kg/m3
303.14 K, 14075 kPa | 997.2 kg/m3
303.14 K, 21030 kPa | 1001.2 kg/m3
303.14 K, 32666 kPa | 1007.6 kg/m3
303.14 K, 32689 kPa | 1007.7 kg/m3
303.14 K, 32708 kPa | 1007.8 kg/m3
303.14 K, 32727 kPa | 1007.7 kg/m3
303.14 K, 32750 kPa | 1007.8 kg/m3
303.14 K, 32770 kPa | 1007.7 kg/m3
303.14 K, 32789 kPa | 1007.7 kg/m3
303.14 K, 34002 kPa | 1008.2 kg/m3
303.14 K, 34004 kPa | 1008.4 kg/m3
303.14 K, 34018 kPa | 1008.3 kg/m3
303.14 K, 34022 kPa | 1008.4 kg/m3
303.14 K, 34024 kPa | 1008.4 kg/m3
303.14 K, 34030 kPa | 1008.3 kg/m3
303.14 K, 34038 kPa | 1008.4 kg/m3
303.14 K, 34043 kPa | 1008.4 kg/m3
303.14 K, 34049 kPa | 1008.2 kg/m3
303.14 K, 34053 kPa | 1008.4 kg/m3
303.14 K, 34057 kPa | 1008.5 kg/m3
303.14 K, 34060 kPa | 1008.3 kg/m3
303.14 K, 34063 kPa | 1008.4 kg/m3
303.14 K, 34084 kPa | 1008.5 kg/m3
303.14 K, 34101 kPa | 1008.4 kg/m3
303.14 K, 34115 kPa | 1008.4 kg/m3
303.14 K, 34131 kPa | 1008.4 kg/m3
303.14 K, 34147 kPa | 1008.4 kg/m3
303.14 K, 34159 kPa | 1008.4 kg/m3
303.14 K, 34165 kPa | 1008.6 kg/m3
303.14 K, 34169 kPa | 1008.5 kg/m3
303.14 K, 34174 kPa | 1008.4 kg/m3
303.15 K, 191.8 kPa | 988.6 kg/m3
303.15 K, 192.2 kPa | 988.4 kg/m3
303.15 K, 192.4 kPa | 988.5 kg/m3
303.15 K, 192.5 kPa | 988.3 kg/m3
303.15 K, 192.7 kPa | 988.4 kg/m3
303.15 K, 193.2 kPa | 988.5 kg/m3
303.15 K, 193.4 kPa | 988.5 kg/m3 and 988.4 kg/m3
303.15 K, 193.6 kPa | 988.6 kg/m3
303.15 K, 193.9 kPa | 988.5 kg/m3
303.15 K, 194.8 kPa | 988.4 kg/m3 and 988.5 kg/m3
303.15 K, 195 kPa | 988.5 kg/m3
303.15 K, 195.1 kPa | 988.5 kg/m3
303.15 K, 195.8 kPa | 988.6 kg/m3 and 988.4 kg/m3
303.15 K, 196 kPa | 988.5 kg/m3
303.15 K, 196.2 kPa | 988.3 kg/m3
303.15 K, 196.3 kPa | 988.5 kg/m3
303.15 K, 196.5 kPa | 988.5 kg/m3 and 988.6 kg/m3
303.15 K, 198.2 kPa | 988.4 kg/m3 and 988.5 kg/m3
303.15 K, 198.4 kPa | 988.4 kg/m3
303.15 K, 198.8 kPa | 988.4 kg/m3 and 988.5 kg/m3
303.15 K, 198.9 kPa | 988.5 kg/m3
303.15 K, 199.1 kPa | 988.5 kg/m3
303.15 K, 199.3 kPa | 988.4 kg/m3
303.15 K, 199.6 kPa | 988.5 kg/m3 and 988.6 kg/m3
303.15 K, 200.9 kPa | 988.4 kg/m3
303.15 K, 202.8 kPa | 988.4 kg/m3
303.15 K, 203.1 kPa | 988.5 kg/m3
303.15 K, 203.3 kPa | 988.5 kg/m3
303.15 K, 203.5 kPa | 988.4 kg/m3
303.15 K, 203.8 kPa | 988.4 kg/m3
303.15 K, 204 kPa | 988.5 kg/m3
303.15 K, 204.5 kPa | 988.4 kg/m3
303.15 K, 204.7 kPa | 988.4 kg/m3
303.15 K, 204.9 kPa | 988.5 kg/m3 and 988.6 kg/m3
303.15 K, 205 kPa | 988.5 kg/m3
303.15 K, 205.4 kPa | 988.5 kg/m3 and 988.4 kg/m3
303.15 K, 205.7 kPa | 988.5 kg/m3 and 988.6 kg/m3
303.15 K, 206.1 kPa | 988.5 kg/m3
303.15 K, 206.2 kPa | 988.5 kg/m3 and 988.4 kg/m3
303.15 K, 206.4 kPa | 988.5 kg/m3
303.15 K, 206.8 kPa | 988.4 kg/m3
303.15 K, 206.9 kPa | 988.3 kg/m3
303.15 K, 208.3 kPa | 988.4 kg/m3
303.15 K, 208.7 kPa | 988.4 kg/m3
303.15 K, 210.1 kPa | 988.5 kg/m3 and 988.4 kg/m3
303.15 K, 210.6 kPa | 988.5 kg/m3
303.15 K, 210.9 kPa | 988.3 kg/m3 and 988.4 kg/m3
303.15 K, 211.1 kPa | 988.4 kg/m3 and 988.5 kg/m3 and 988.3 kg/m3
303.15 K, 211.8 kPa | 988.5 kg/m3 and 988.6 kg/m3
303.15 K, 212 kPa | 988.5 kg/m3
303.15 K, 212.3 kPa | 988.4 kg/m3
303.15 K, 213.2 kPa | 988.4 kg/m3
303.15 K, 213.6 kPa | 988.5 kg/m3
303.15 K, 213.7 kPa | 988.6 kg/m3
303.15 K, 214.1 kPa | 988.5 kg/m3
303.15 K, 214.2 kPa | 988.5 kg/m3
303.15 K, 214.4 kPa | 988.5 kg/m3
303.15 K, 214.6 kPa | 988.6 kg/m3
303.15 K, 214.8 kPa | 988.5 kg/m3
303.15 K, 215.1 kPa | 988.4 kg/m3
303.15 K, 215.5 kPa | 988.5 kg/m3
303.15 K, 215.6 kPa | 988.4 kg/m3 and 988.5 kg/m3
303.15 K, 216 kPa | 988.5 kg/m3
303.15 K, 216.2 kPa | 988.5 kg/m3
303.15 K, 216.5 kPa | 988.5 kg/m3
303.15 K, 216.7 kPa | 988.6 kg/m3
303.15 K, 216.9 kPa | 988.5 kg/m3
303.15 K, 217 kPa | 988.5 kg/m3
303.15 K, 217.2 kPa | 988.4 kg/m3
303.15 K, 217.7 kPa | 988.4 kg/m3
303.15 K, 218.1 kPa | 988.5 kg/m3
303.15 K, 218.2 kPa | 988.5 kg/m3
303.15 K, 218.6 kPa | 988.5 kg/m3
303.15 K, 219.1 kPa | 988.5 kg/m3
303.15 K, 219.4 kPa | 988.6 kg/m3
303.15 K, 219.6 kPa | 988.5 kg/m3
303.15 K, 219.8 kPa | 988.4 kg/m3
303.15 K, 220 kPa | 988.4 kg/m3
303.15 K, 220.2 kPa | 988.4 kg/m3
303.15 K, 220.3 kPa | 988.4 kg/m3
303.15 K, 224.1 kPa | 988.4 kg/m3
303.15 K, 224.8 kPa | 988.5 kg/m3
303.15 K, 225.2 kPa | 988.4 kg/m3
303.15 K, 225.4 kPa | 988.5 kg/m3
303.15 K, 228.3 kPa | 988.6 kg/m3
